Test results reported in US12435087B2, “Modulators of DCN-1 and methods of use thereof” (Cellarity, Inc., priority 2023, dated 2025).
Read-outs that look alike come from different tables or passages of the source.

Target: DCN1 (DCUND1) protein PONY domain (Homo sapiens (Human), UniProt Q96GG9)
Test: TR-FRET assay (binding to DCN-1, displacement of FAM-labeled probe)
Excerpt: (§1) The TR-FRET assay was designed following the Scott et al. protocol (Scott et al., Nat Chem Biol. 2017 August; 13(8): 850-857. doi:10.1038/nchembio.2386). The recombinant form of the DCN1 (DCUND1) protein PONY domain was produced using an E. coli expression system at Viva Biotech (China). The DCN1 protein was biotinylated (EZ sulfo-NHS-LC-biotin; Thermofisher) for labeling with streptavidin terbium (Tb) cryptate in the reaction. The probe was changed to a non-covalent DCN1 inhibitor labeled with carboxyfluorescein (FAM; Zhou et al., Nat Commun. 2017; 8: 1150. doi: 10.1038/s41467-017-01243-7). Buffer conditions were modified to enhance protein stability by exchanging Tween20 for TritonX and increasing NaCl to 200 mM. The compounds were screened against 5 nM DCN1 and 20 nM FAM-probe or 0.31 nM DCN1 and 900 nM total probe (100 nM FAM-labeled plus 800 nM unlabeled). The TR-FRET ratio between Tb-DCN1 and the FAM-labeled probe was measured in a 384-well opti-plate (Perkin Elmer) using a plate reader (BMG) at 1, 5, and 24 hrs after treatment with compound (final DMSO concentration of 0.1%). The ratio was normalized to the high (DCN1 and FAM-probe) and low (DCN1 and no probe) controls for a readout of % activity (=100*(x−low)/(high−low).
A TR-FRET assay was performed to evaluate the ability of the compounds to bind the DCN-1 protein.
as §1, with “850-857. Doi: 10.1038/nchembio.2386).” for “850-857. doi:10.1038/nchembio.2386).”, “the DCNI” for “the DCN1”, “1150. Doi:” for “1150. doi:”, “0.1%).” for “0.1%). The ratio was normalized to the high (DCN1 and FAM-probe) and low (DCN1 and no probe) controls for a readout of % activity (=100*(x−low)/(high−low).”

[1] = 24 hr after treatment with compound, read-out: TR FRET IC50 24 hr
[2] = TR FRET IC50 1 hr (nM), 1 hr after treatment with compound
[3] = read-out: TR FRET IC50 1 hr, 1 hr after treatment with compound

DCN1 (DCUND1) protein PONY domain, sequence (Q96GG9 60-248): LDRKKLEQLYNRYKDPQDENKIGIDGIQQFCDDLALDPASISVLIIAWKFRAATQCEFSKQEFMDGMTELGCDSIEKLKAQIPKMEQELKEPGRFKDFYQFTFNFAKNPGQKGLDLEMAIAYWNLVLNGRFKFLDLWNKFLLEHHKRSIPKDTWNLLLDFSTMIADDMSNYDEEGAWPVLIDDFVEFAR

## C=C(F)C(=O)Nc1cccc([C@H]2c3c(C)nn(-c4ccccc4)c3N(CC)C(=O)[C@@H]2NC(=O)c2cccc(C(F)(F)F)c2)c1 (racemic) [Compound I-140, N-((4S,5R)-7-ethyl-4-(3-(2-fluoroacrylamido)phenyl)-3-methyl-6-oxo-1-phenyl-4,5,6,7-tetrahydro-1H-pyrazolo[3,4-b]pyridin-5-yl)-3(trifluoromethyl) benzamide]
[1]
  IC50: > 3000 nM
[2]
  IC50: > 3000 nM

## CCN1C(=O)[C@@H](NC(=O)c2cccc(C(F)(F)F)c2)[C@H](c2cccc(CNC(=O)/C=C/C(=O)OC)c2)c2cnn(-c3ccccc3)c21 (racemic) [Compound I-143]
[1]
  IC50: 200 to 1000 nM
[2]
  IC50: 1000 to 3000 nM

## CCN1C(=O)[C@@H](NC(=O)c2cccc(C(F)(F)F)c2)[C@H](c2cccc(NC(=O)/C(C)=C/C(=O)OC)c2)c2c(C)nn(-c3ccccc3)c21 (racemic) [Compound I-145]
[1]
  IC50: 200 to 1000 nM
[2]
  IC50: 1000 to 3000 nM

## C=C(CN1CCOCC1)C(=O)Nc1cccc([C@H]2c3c(C)nn(-c4ccccc4)c3N(CCO)C(=O)[C@@H]2NC(=O)c2cccc(C(F)(F)F)c2)c1 (racemic) [Compound I-147, rac-N-((4R,5S)-7-(2-hydroxyethyl)-3-methyl-4-(3-(2-(morpholinomethyl)acrylamido)phenyl)-6-oxo-1-phenyl-4,5,6,7-tetrahydro-1H-pyrazolo[3,4-b]pyridin-5-yl)-3-(trifluoromethyl)benzamide]
[1]
  IC50: ≤ 200 nM
[2]
  IC50: ≤ 200 nM

## CCN1C(=O)[C@@H](NC(=O)c2cccc(C(F)(F)F)c2)[C@@H](c2cccc(NC(=O)C3=CCN(C)C3)c2)c2c(C)nn(-c3ccccc3)c21 (racemic) [Compound I-148]
[1]
  IC50: 200 to 1000 nM
[2]
  IC50: 1000 to 3000 nM

## CCN1C(=O)[C@@H](NC(=O)c2cccc(C(F)(F)F)c2)[C@H](c2ccccc2CNC#N)c2c(C)nn(-c3ccccc3)c21 (racemic) [Compound I-149]
[1]
  IC50: 200 to 1000 nM
[2]
  IC50: 1000 to 3000 nM

## C=C(CN1CCOCC1)C(=O)NCc1ccccc1[C@@H]1c2cnn(-c3ccccc3)c2N(CC)C(=O)[C@H]1NC(=O)c1cccc(C(F)(F)F)c1 (racemic) [Compound I-153]
[1]
  IC50: ≤ 200 nM
[3]
  IC50: ≤ 200 nM

## CCN1C(=O)[C@@H](NC(=O)c2cccc(C(F)(F)F)c2)[C@H](c2cccc(NC(=O)/C=C(\C)C(=O)OC)c2)c2c(C)nn(-c3ccccc3)c21 (racemic) [Compound I-157]
[1]
  IC50: 200 to 1000 nM
[2]
  IC50: 1000 to 3000 nM

## CCN1C(=O)[C@H](NC(=O)c2cccc(C(F)(F)F)c2)[C@@H](c2cccc(NC(=O)/C=C/CN(C)C)c2)c2c(CN(C)C)nn(-c3ccccc3)c21 (racemic) [Compound I-212, ˜{N}—[˜{rac}-(4˜{S},5˜{R})-3-[(dimethylamino)methyl]-7-ethyl-6-oxo-1-phenyl-4-[3-[[˜{rac}-(˜{E})-4-(dimethylamino)but-2-enoyl]amino]phenyl]-4,5-dihydropyrazolo[3,4-b]pyridin-5-yl]-3-(trifluoromethyl)benzamide]
[1]
  IC50: ≤ 200 nM
[2]
  IC50: 200 to 1000 nM

## CCN1C(=O)[C@H](NC(=O)c2cccc(C(F)(F)F)c2)[C@@H](c2cccc(NC(=O)/C=C/CN(C)C)c2)c2c(CO)nn(-c3ccccc3)c21 (racemic) [Compound I-213, ˜{N}—[˜{rac}-(4˜{S},5˜{R})-7-ethyl-3-(hydroxymethyl)-6-oxo-1-phenyl-4-[3-[[˜{rac}-(˜{E})-4-(dimethylamino)but-2-enoyl]amino]phenyl]-4,5-dihydropyrazolo[3,4-b]pyridin-5-yl]-3-(trifluoromethyl)benzamide]
[1]
  IC50: 200 to 1000 nM
[2]
  IC50: 1000 to 3000 nM

## C/C=C(/CN1CCN(C2COC2)CC1)C(=O)NCc1cccc([C@@H]2c3cnn(-c4ccccc4)c3N(CC)C(=O)[C@H]2NC(=O)c2nccc(C(F)(F)F)n2)c1 (racemic) [Compound I-257]
[1]
  IC50: 1000 to 3000 nM
[2]
  IC50: 1000 to 3000 nM

## CCN1C(=O)[C@@H](NC(=O)c2nccc(C(F)(F)F)n2)[C@H](c2ccccc2/C=C/C#N)c2cnn(-c3ccccc3)c21 (racemic) [Compound I-259, rac-N-((4R,5S)-4-(2-((E)-2-cyanovinyl)phenyl)-7-ethyl-6-oxo-1-phenyl-4,5,6,7-tetrahydro-1H-pyrazolo[3,4-b]pyridin-5-yl)-4-(trifluoromethyl)pyrimidine-2-carboxamide]
[1]
  IC50: 1000 to 3000 nM
[2]
  IC50: 1000 to 3000 nM

## CCN1C(=O)[C@@H](NC(=O)c2nccc(C(F)(F)F)n2)[C@H](c2ccccc2/C=C\C#N)c2cnn(-c3ccccc3)c21 (racemic) [Compound I-260, rac-N-((4R,5S)-4-(2-((Z)-2-cyanovinyl)phenyl)-7-ethyl-6-oxo-1-phenyl-4,5,6,7-tetrahydro-1H-pyrazolo[3,4-b]pyridin-5-yl)-4-(trifluoromethyl)pyrimidine-2-carboxamide]
[1]
  IC50: 1000 to 3000 nM
[2]
  IC50: 1000 to 3000 nM

## CCN1C(=O)[C@@H](NC(=O)c2nccc(C(F)(F)F)n2)[C@H](c2cccc(NC(=O)/C=C/C(=O)N3CCCC3)c2)c2c(C)nn(-c3ccccc3)c21 (racemic) [Compound I-262]
[1]
  IC50: 1000 to 3000 nM
[2]
  IC50: 1000 to 3000 nM

## CCN1C(=O)[C@@H](NC(=O)c2nccc(C(F)(F)F)n2)[C@H](c2cccc(NC(=O)/C=C/CN(C)C)n2)c2cnn(-c3ccccc3)c21 (racemic) [Compound I-265]
[1]
  IC50: 200 to 1000 nM
[2]
  IC50: 200 to 1000 nM

## CCN1C(=O)[C@@H](NC(=O)c2nccc(C(F)(F)F)n2)[C@H](c2cccc(NC(=O)C3=CCC3)n2)c2cnn(-c3ccccc3)c21 (racemic) [Compound I-279]
[1]
  IC50: 1000 to 3000 nM
[2]
  IC50: 1000 to 3000 nM

## CCN1C(=O)[C@@H](NC(=O)c2cccc(C(F)(F)F)c2)[C@H](c2cccc3c2CN(C#N)C3)c2cnn(-c3ccccc3)c21 (racemic) [Compound I-282, rac-N-((4R,5S)-4-(2-cyanoisoindolin-4-yl)-7-ethyl-6-oxo-1-phenyl-4,5,6,7-tetrahydro-1H-pyrazolo[3,4-b]pyridin-5-yl)-3-(trifluoromethyl)benzamide]
[1]
  IC50: 1000 to 3000 nM
[2]
  IC50: 1000 to 3000 nM

## CCN1C(=O)[C@@H](NC(=O)c2nccc(C(F)(F)F)n2)[C@H](c2cccc(NC(=O)/C=C/C(=O)OC(C)(C)C)c2)c2c(C)nn(-c3ccccc3)c21 (racemic) [Compound I-359, rac-tert-butyl (E)-4-((3-((4R,5S)-7-ethyl-3-methyl-6-oxo-1-phenyl-5-(4-(trifluoromethyl)pyrimidine-2-carboxamido)-4,5,6,7-tetrahydro-1H-pyrazolo[3,4-b]pyridin-4-yl)phenyl)amino)-4-oxobut-2-enoate]
[1]
  IC50: ≤ 200 nM
[2]
  IC50: 1000 to 3000 nM

## CCN1C(=O)[C@@H](NC(=O)c2nccc(C(F)(F)F)n2)[C@H](c2cccc(C(=O)N(C)CC#N)c2)c2cnn(-c3ccccc3)c21 (racemic) [Compound I-370]
[1]
  IC50: 1000 to 3000 nM
[2]
  IC50: 1000 to 3000 nM

## CCN1C(=O)[C@@H](NC(=O)c2nccc(C(F)(F)F)n2)[C@H](c2cccc(NC(=O)C3=CCN(C)C3)n2)c2cnn(-c3ccccc3)c21 (racemic) [Compound I-376, rac-N-((4R,5S)-7-ethyl-4-(6-(1-methyl-2,5-dihydro-1H-pyrrole-3-carboxamido)pyridin-2-yl)-6-oxo-1-phenyl-4,5,6,7-tetrahydro-1H-pyrazolo[3,4-b]pyridin-5-yl)-4-(trifluoromethyl)pyrimidine-2-carboxamide]
[1]
  IC50: ≤ 200 nM
[2]
  IC50: 200 to 1000 nM

## C=C(CN1CCOCC1)C(=O)NCc1cccc([C@@H]2c3cnn(-c4ccccc4)c3N(CC)C(=O)[C@H]2NC(=O)c2ccn(C)n2)c1 (single isomer, unassigned) [Compound I-51]
[3]
  IC50: 1000 to 3000 nM

## C=C(C(=O)NCc1cccc([C@@H]2c3cnn(-c4ccccc4)c3N(CC)C(=O)[C@H]2NC(=O)c2nccc(C(F)(F)F)n2)c1)[C@H](C)N(C)C1COC1 (single isomer, unassigned) [Compound I-382]
[2]
  IC50: 200 to 1000 nM

## CCN1C(=O)C(NC(=O)c2cccc(C(F)(F)F)c2)[C@@H](c2cccc(NC(=O)C(Cl)Cl)c2)c2c(C)nn(-c3ccccc3)c21 (stereo in doubt) [Compound I-42, N-((4S,5R)-4-(3-(2,2-dichloroacetamido)phenyl)-7-ethyl-3-methyl-6-oxo-1-phenyl-4,5,6,7-tetrahydro-1H-pyrazolo[3,4-b]pyridin-5-yl)-3-(trifluoromethyl)benzamide]
[1]
  IC50: 1000 to 3000 nM
[3]
  IC50: > 3000 nM
